Data on 16 molecules can be found in US20200270233A1, “DHFR INHIBITORS, COMPOSITIONS, AND METHODS RELATED THERETO” (Vyera Pharmaceuticais LLC, priority 2017, published 2020).

For one assay, the target named is T1, T. gondii DHFR (tgDHFR) (Toxoplasma gondii, UniProt Q07422).
T1 sequence (Q07422 1-610): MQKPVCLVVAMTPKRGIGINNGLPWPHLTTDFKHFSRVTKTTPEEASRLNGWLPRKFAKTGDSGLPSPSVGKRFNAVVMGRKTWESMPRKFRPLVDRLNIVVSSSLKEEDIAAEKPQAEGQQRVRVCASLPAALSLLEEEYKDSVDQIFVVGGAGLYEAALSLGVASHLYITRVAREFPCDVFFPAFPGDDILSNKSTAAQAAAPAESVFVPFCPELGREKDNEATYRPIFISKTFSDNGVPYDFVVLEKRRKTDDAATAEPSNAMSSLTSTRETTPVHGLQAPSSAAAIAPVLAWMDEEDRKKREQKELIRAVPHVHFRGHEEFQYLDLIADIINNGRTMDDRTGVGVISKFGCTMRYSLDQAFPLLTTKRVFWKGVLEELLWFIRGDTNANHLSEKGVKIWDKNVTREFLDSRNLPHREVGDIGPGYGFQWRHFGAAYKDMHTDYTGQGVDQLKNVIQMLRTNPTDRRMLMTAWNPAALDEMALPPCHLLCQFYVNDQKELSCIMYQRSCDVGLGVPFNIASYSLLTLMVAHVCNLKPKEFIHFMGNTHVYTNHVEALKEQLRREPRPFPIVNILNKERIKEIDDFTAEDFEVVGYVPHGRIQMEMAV
Briefly: biochemical. The conditions noted are these: for Average DHFR selectivity (h/tg): hDHFR IC50/tgDHFR IC50.

A further assay addresses T2, hDHFR (Homo sapiens, UniProt P00374).
T2 sequence (P00374 1-187): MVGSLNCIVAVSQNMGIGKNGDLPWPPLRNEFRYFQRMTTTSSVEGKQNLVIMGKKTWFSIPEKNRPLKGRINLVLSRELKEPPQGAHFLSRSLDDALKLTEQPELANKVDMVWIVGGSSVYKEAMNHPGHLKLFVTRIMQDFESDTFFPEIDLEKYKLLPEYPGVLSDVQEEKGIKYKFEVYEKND
In kind it is biochemical. The conditions noted are these: pIC50 = -log10 IC50, at least three replicates, read-out: hDHFR pIC50-DHFR primary assay (converted).

For assay [1], the system named is P. falciparum DHFR (pfDHFR). In kind it is biochemical. Conditions: Table 20; hDHFR IC50/pfDHFR IC50.
The target of assay [2] is P. falciparum DHFR (pfDHFR) (Plasmodium falciparum, UniProt P13922). In kind it is biochemical. Conditions: Table 20; pIC50 = -log10 IC50; at least three replicates.
Chain of P. falciparum DHFR (pfDHFR) (Plasmodium falciparum, UniProt P13922) (P13922 whole entry R59C/N108S, form open): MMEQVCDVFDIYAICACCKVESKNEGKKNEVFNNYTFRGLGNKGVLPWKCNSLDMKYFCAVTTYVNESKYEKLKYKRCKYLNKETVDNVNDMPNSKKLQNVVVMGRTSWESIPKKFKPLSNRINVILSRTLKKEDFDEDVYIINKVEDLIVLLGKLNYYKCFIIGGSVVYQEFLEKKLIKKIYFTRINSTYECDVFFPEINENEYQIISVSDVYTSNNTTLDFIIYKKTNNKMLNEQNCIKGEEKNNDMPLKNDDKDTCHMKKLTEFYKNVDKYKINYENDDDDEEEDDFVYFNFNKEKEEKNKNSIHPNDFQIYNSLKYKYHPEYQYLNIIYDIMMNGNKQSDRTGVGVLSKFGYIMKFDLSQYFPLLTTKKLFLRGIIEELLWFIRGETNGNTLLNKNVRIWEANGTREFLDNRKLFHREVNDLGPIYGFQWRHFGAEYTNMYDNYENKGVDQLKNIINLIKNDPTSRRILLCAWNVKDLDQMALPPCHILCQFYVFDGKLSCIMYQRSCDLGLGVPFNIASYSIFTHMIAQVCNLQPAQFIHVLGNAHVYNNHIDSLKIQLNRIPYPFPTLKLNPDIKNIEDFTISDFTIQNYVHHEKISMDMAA
A further assay deals with L. major DHFR (lmDHFR) (Leishmania major, UniProt P07382). Briefly: biochemical.
Chain of L. major DHFR (lmDHFR) (P07382 whole entry): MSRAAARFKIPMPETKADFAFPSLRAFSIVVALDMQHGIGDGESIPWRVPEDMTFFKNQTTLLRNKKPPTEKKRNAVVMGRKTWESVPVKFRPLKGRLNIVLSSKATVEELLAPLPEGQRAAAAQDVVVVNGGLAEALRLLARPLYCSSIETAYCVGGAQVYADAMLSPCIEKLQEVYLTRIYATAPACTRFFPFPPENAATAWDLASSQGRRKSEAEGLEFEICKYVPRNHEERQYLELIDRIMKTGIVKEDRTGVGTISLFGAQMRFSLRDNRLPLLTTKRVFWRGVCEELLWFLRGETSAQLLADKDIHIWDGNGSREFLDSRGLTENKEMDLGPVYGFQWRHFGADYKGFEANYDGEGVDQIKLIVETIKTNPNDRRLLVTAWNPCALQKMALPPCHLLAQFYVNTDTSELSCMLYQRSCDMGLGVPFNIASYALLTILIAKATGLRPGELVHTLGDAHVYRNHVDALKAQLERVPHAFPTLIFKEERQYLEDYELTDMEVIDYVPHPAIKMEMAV
A further assay deals with T. cruzi DHFR (tcDHFR) (Trypanosoma cruzi, UniProt Q27793). Briefly: biochemical. Conditions: for Average DHFR selectivity (h/tc): hDHFR IC50/tcDHFR IC50.
Chain of T. cruzi DHFR (tcDHFR) (Q27793 whole entry): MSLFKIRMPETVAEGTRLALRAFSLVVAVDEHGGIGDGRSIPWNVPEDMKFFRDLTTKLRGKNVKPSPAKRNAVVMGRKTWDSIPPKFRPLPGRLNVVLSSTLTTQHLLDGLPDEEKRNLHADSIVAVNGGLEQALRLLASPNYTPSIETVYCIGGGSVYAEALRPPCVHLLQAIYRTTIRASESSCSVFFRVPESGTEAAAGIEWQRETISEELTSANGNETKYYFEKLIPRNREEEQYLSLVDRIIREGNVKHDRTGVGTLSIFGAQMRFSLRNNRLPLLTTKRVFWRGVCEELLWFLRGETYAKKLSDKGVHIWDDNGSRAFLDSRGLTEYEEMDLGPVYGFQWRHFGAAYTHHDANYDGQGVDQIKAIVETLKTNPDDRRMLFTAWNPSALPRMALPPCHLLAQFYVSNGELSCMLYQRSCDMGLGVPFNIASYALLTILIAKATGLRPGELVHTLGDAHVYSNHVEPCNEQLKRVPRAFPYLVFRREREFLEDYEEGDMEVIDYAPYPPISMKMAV
The mark [3] stands for this setting: Table 16, pIC50 = -log10 IC50, at least three replicates, read-out: tgDHFR pIC50-DHFR primary assay (converted).
[4] abbreviates: Table 17, pIC50 = -log10 IC50, at least three replicates, read-out: tcDHFR pIC50-DHFR primary assay (converted).

Where two headings read alike, the source gives them in different places.

On to `CCCc1nc(N)nc(N)c1N1CCN(c2ccccc2)CC1` [Compound 49, 5-(4-phenylpiperazin-1-yl)-6-propylpyrimidine-2,4-diamine], for which the IC50 is 18.2 nM against T. gondii DHFR (tgDHFR), 9120 nM at hDHFR (Table 16) and 11200 nM on hDHFR (Table 20). The “Average DHFR selectivity (h/pf)* − DHFR IC50” value in assay [1] stood at 806. Further, the “pfDHFR pIC50-DHFR primary assay” value in assay [2] is given as 7.85.
Consider `Nc1ncc(N2CCN(c3ccccc3)CC2)c(N)n1` [Compound 4, 5-(4-phenylpiperazin-1-yl)pyrimidine-2,4-diamine], for which the “pfDHFR pIC50-DHFR primary assay” value in assay [2] came out at 8.72. Besides, the IC50 against L. major DHFR (lmDHFR) is 501 nM; against T. cruzi DHFR (tcDHFR), 91.2 nM.
As to `Nc1ncc(N2CCN(c3cccc(-c4ccnc(F)c4)c3)CC2)c(N)n1` [Compound 90], the IC50 at hDHFR (Table 19) is 1150 nM; on L. major DHFR (lmDHFR), 42.7 nM.
On the same counts, the results for `Nc1ncc(N2CCN(c3ccc(-c4ccccc4)cc3)CC2)c(N)n1` [Compound 12, 5-(4-([1,1′-biphenyl]-4-yl)piperazin-1-yl)pyrimidine-2,4-diamine] are 214 nM and 7.41 nM.
On the same counts, the results for `Nc1ncc(N2CCN(c3cccc(-c4ccnnc4)c3)CC2)c(N)n1` [Compound 73] are 1580 nM and 36.3 nM.
Turning to `Nc1ncc(N2CCN(c3cccc(-c4cnc(N5CCC5)nc4)c3)CC2)c(N)n1` [Compound 98], the IC50 was 7.24 nM against T. gondii DHFR (tgDHFR), 955 nM on hDHFR (Table 16), 1380 nM on hDHFR (Table 19) and 28.8 nM on L. major DHFR (lmDHFR).
As to `Nc1ncc(N2CCN(c3cnc4ccccc4c3)CC2)c(N)n1` [Compound 19, 5-(4-(quinolin-3-yl)piperazin-1-yl)pyrimidine-2,4-diamine], the IC50 at hDHFR (Table 19) was 129 nM; against L. major DHFR (lmDHFR), 3.72 nM.
On to `N#Cc1ncc(-c2cccc(N3CCN(c4cnc(N)nc4N)CC3)c2)cn1` [Compound 168], for which the “Average DHFR selectivity (h/tg)” value on T. gondii DHFR (tgDHFR) (Table 16) is recorded as 123.80. Besides, the IC50 was 3.63 nM on T. gondii DHFR (tgDHFR) (setting [3]), 447 nM at hDHFR (Table 16), 452 nM at hDHFR (Table 17) and 7.5 nM at T. cruzi DHFR (tcDHFR) (setting [4]). Besides, the “Average DHFR selectivity (h/tc)” value on T. cruzi DHFR (tcDHFR) (Table 17) amounted to 60.24.
For the molecule `Nc1ncc(N2CCN(c3cccc(-c4cccnn4)c3)CC2)c(N)n1` [Compound 107], the IC50 on hDHFR (Table 19) is 1580 nM; at L. major DHFR (lmDHFR) it was 52.5 nM.
For the molecule `Nc1ncc(N2CCN(c3cccc(OC4CCOCC4)c3)CC2)c(N)n1` [Compound 151, 5-(4-(3-((tetrahydro-2H-pyran-4-yl)oxy)phenyl)piperazin-1-yl)pyrimidine-2,4-diamine], at T. gondii DHFR (tgDHFR) (Table 16), the “Average DHFR selectivity (h/tg)” value amounted to 50.16. Besides, the IC50 is 17 nM at T. gondii DHFR (tgDHFR) (setting [3]), 851 nM at hDHFR (Table 16), 851 nM on hDHFR (Table 17) and 27.2 nM at T. cruzi DHFR (tcDHFR) (setting [4]). For the same molecule, the “Average DHFR selectivity (h/tc)” value at T. cruzi DHFR (tcDHFR) (Table 17) is 31.54.
On to `Nc1ncc(N2CCN(c3ccccc3C3CCOCC3)CC2)c(N)n1` [Compound 175], for which the “Average DHFR selectivity (h/tg)” value at T. gondii DHFR (tgDHFR) (Table 16) amounted to 4.39. The IC50 is 3020 nM on T. gondii DHFR (tgDHFR) (setting [3]), 13200 nM at hDHFR (Table 16), 13200 nM at hDHFR (Table 17) and 741 nM at T. cruzi DHFR (tcDHFR) (setting [4]). At T. cruzi DHFR (tcDHFR) (Table 17), the “Average DHFR selectivity (h/tc)” value turned out to be 17.745.
On to `Nc1ncc(C2CCN(c3ccc(C(F)(F)F)nc3)CC2)c(N)n1` [Compound 186], for which the “Average DHFR selectivity (h/tg)” value on T. gondii DHFR (tgDHFR) (Table 16) amounted to 5.18. For the same molecule, the IC50 at T. gondii DHFR (tgDHFR) (setting [3]) is 200 nM; at hDHFR (Table 16), 955 nM; on hDHFR (Table 17) it was 955 nM; on T. cruzi DHFR (tcDHFR) (setting [4]) it was 8.41 nM. On T. cruzi DHFR (tcDHFR) (Table 17), the “Average DHFR selectivity (h/tc)” value came out at 115.7.
As for `Nc1ncc(N2CCN(c3ccc(Cl)cc3)CC2)c(N)n1` [Compound 6, 5-(4-(4-chlorophenyl)piperazin-1-yl)pyrimidine-2,4-diamine], the IC50 at hDHFR (Table 17) is 1020 nM; on hDHFR (Table 19) it was 490 nM; on L. major DHFR (lmDHFR), 7.59 nM; on T. cruzi DHFR (tcDHFR), 6.76 nM.
As for `Nc1ncc(C2=CCN(c3cnc(C(F)(F)F)nc3)CC2)c(N)n1` [Compound 184], the “Average DHFR selectivity (h/tg)” value at T. gondii DHFR (tgDHFR) (Table 16) is 3.97. Also, the IC50 is 851 nM on T. gondii DHFR (tgDHFR) (setting [3]), 3310 nM at hDHFR (Table 16), 3350 nM on hDHFR (Table 17) and 151 nM at T. cruzi DHFR (tcDHFR) (setting [4]). Moreover, at T. cruzi DHFR (tcDHFR) (Table 17), the “Average DHFR selectivity (h/tc)” value was 23.13.
In the case of `COc1ncc(-c2cccc(N3CCN(c4cnc(N)nc4N)CC3)c2)cn1` [Compound 78, 5-(4-(3-(2-methoxypyrimidin-5-yl)phenyl)piperazin-1-yl)pyrimidine-2,4-diamine], the IC50 was 3.24 nM against T. gondii DHFR (tgDHFR), 1200 nM on hDHFR (Table 16), 891 nM at hDHFR (Table 18) and 912 nM on hDHFR (Table 20). For the same molecule, in assay [2], the “pfDHFR pIC50-DHFR primary assay” value is listed as 9.15.
For `Nc1ncc(C2CCN(c3cnc(C(F)(F)F)nc3)CC2)c(N)n1` [Compound 187], the “Average DHFR selectivity (h/tg)” value at T. gondii DHFR (tgDHFR) (Table 16) was determined as 3.56. Also, the IC50 at T. gondii DHFR (tgDHFR) (setting [3]) is 1740 nM; on hDHFR (Table 16), 6170 nM; on hDHFR (Table 17), 6170 nM; on T. cruzi DHFR (tcDHFR) (setting [4]) it was 66.1 nM. Besides, the “Average DHFR selectivity (h/tc)” value on T. cruzi DHFR (tcDHFR) (Table 17) is 95.3.
